Assay results reported in patent US9855273B2, “Combination therapy for MDS” (priority 2013, dated 2018).

Experiments:
MDSL cells [1] = assay: MDSL xenograft, in vivo i.p. delivery after engraftment, NSG mice
Protocol: (§1) Xenograftment of NOD/SCID-IL2Rγ(NSG) and NSG-hSCF/hGM-CSF/hIL3 (NSGS) MDSL cells (1×10^6-5×10^6) were injected into the tail veins of 8-week old sublethally irradiated ([…]) NSG or NSG animals engineered to express human SCF, GM-CSF, and IL3 (NSGS) as previously described (Wunderlich et al., 2010). Mice were monitored by performing complete blood counts (Drew Hemavet 950FS). Following red cell lysis, human MDSL cells were identified by hCD45-FITC staining. In vivo delivery of IRAK-Inh approach is adapted from previous reports (Yang et al., 2011): IRAK-Inh was diluted in DMSO (5 mM) and further dissolved in sterile phosphate buffered saline (PBS; pH 7.2). Animals were injected i.p. with 2.12 mg/kg IRAK-Inh 3× weekly.
To determine whether IRAK-Inh can delay human MDS-like disease in vivo, MDSL were pre-treated with IRAK-Inh (10 μM) for 24 hrs in vitro and subsequently injected intravenously (i.v.) into NSG (5×10^6 cells) and NSGS (1×10^6 cells) recipient mice (FIG. 4A). This approach permitted us to evaluate the cell autonomous effect of IRAK-Inh on MDS cell viability and engraftment without altering endogenous IRAK1 function in the mouse. […] In addition, the human MDSL graft was reduced from 8% to 2% (FIG. 4D). Morphological assessment confirmed normal RBC and reduced MDS grafts in the peripheral blood and marrow of mice transplanted with IRAK-Inh-treated MDSL cells (FIG. 4E). […]

MDSL cells [2] = assay: MDSL xenograft, cells pre-treated in vitro, NSG mice; format: in vivo
Protocol: as §1
To determine whether IRAK-Inh can delay human MDS-like disease in vivo, MDSL were pre-treated with IRAK-Inh (10 μM) for 24 hrs in vitro and subsequently injected intravenously (i.v.) into NSG (5×10^6 cells) and NSGS (1×10^6 cells) recipient mice (FIG. 4A). This approach permitted us to evaluate the cell autonomous effect of IRAK-Inh on MDS cell viability and engraftment without altering endogenous IRAK1 function in the mouse.

MDSL cells [3] = assay: Cell cycle analysis by BrdU/7AAD; format: cell-based, human; conditions: 10 μM, up to 6 days
Protocol: MDS/AML cell lines with hyperphosphorylated IRAK1 (FIG. 1D) were evaluated for sensitivity to IRAK-Inh. MDS/AML cell lines exposed to increasing concentration of IRAK-Inh were cultured for up to 6 days in vitro (FIG. 3A). […] In support of this observation, the inhibitory effect of IRAK-Inh on the cell lines correlated with the level of phosphorylated IRAK1 (R2=0.36; FIG. 3B). In parallel, cell viability was examined after 48 hrs of treatment with the IRAK-Inh. […] To investigate whether IRAK-Inh affects cell cycle progression, MDSL cells were treated with 10 μM IRAK-Inh for up to 6 days and evaluated by BrdU/7AAD staining (FIG. 3D).

normal CD34+ cells = assay: Colony formation in methylcellulose, normal CD34+ cells
Protocol: The effect of IRAK-Inh on leukemic progenitor function was evaluated in methylcellulose containing IRAK-Inh. […] As an alternative approach, MDS/AML cells were pre-treated with IRAK-Inh for 24 hours and then plated in methylcellulose.

[4] = test system: MDS/AML cell lines (MDSL, TF1, THP1, HL60); assay: Viable cell growth (trypan blue exclusion) of MDS/AML cell lines; format: cell-based, human
Protocol: Acute myeloid leukemic cell lines, HL60, THP1, and TF-1 were purchased from the American Type Culture Collection. MOLM13 were purchased from AddexBio. The myelodysplastic cell line, MDS-L, was provided by Dr. Kaoru Tohyama (Kawasaki Medical School, Okayama, Japan) (Matsuoka et al., 2010). […] Additionally, both the MDSL and TF-1 cell lines were cultured in the presence of 10 ng/mL human recombinant IL-3 (Stemcell Technologies).

[5] = test system: normal cord blood-derived CD34+ cells; assay: Growth and viability of normal CD34+ cells; format: cell-based, human; conditions: even high doses
Protocol: Acute myeloid leukemic cell lines, HL60, THP1, and TF-1 were purchased from the American Type Culture Collection. MOLM13 were purchased from AddexBio. The myelodysplastic cell line, MDS-L, was provided by Dr. Kaoru Tohyama (Kawasaki Medical School, Okayama, Japan) (Matsuoka et al., 2010). Cell-lines were cultured in RPMI 1640 medium with 10% FBS and 1% penicillin-streptomycin. Additionally, both the MDSL and TF-1 cell lines were cultured in the presence of 10 ng/mL human recombinant IL-3 (Stemcell Technologies). […] Human CD34+ UCB cells and primary MDS/AML cells were maintained in StemSpan Serum-Free Expansion Media (Stemcell Technologies) supplemented with 10 ng/mL of recombinant human stem cell factor (SCF), Flt3 ligand (Flt3L), thrombopoietin (TPO), IL-3, and IL-6 (Stemcell Technologies).

MDS/AML cell lines = assay: AnnexinV apoptosis staining of MDS/AML cell lines; format: cell-based, human; conditions: all cell lines, 48 hrs of treatment, 10 μM
MDS patient marrow cells [6] = conditions: 48 hrs
Protocol: (§2) Annexin V analysis was carried out as previously described (Fang et al., 2012). Cells were stained after either drug treatment or lentiviral transduction with Annexin V (eBioscience) and propidium iodide (Sigma-Aldrich), or 7AAD (eBioscience) according to the manufacturer's instructions. Analysis was performed using BD FACSCalibur or FACSCanto flow cytometer with either CellQuest or Diva software. For in vitro growth assays, cell expansion in liquid culture was determined based on trypan blue exclusion using an automated cell counter (BioRad TC10). For experiments beyond 48 hrs, cells were replenished with fresh media and drug every second day. For primary patient marrow cells, cell were treated with a single inhibitor dose and counted 24 and 48 hours later. NF-κB DNA-binding assay Nuclear lysates were isolated from treated cells as previously described (Starczynowski et al., 2011). NF-κB (p65) DNA binding was measured using an ELISA-based assay according to the manufacturer's recommendations (KHO0371, Invitrogen)

NF-κB (RelA/p65) = conditions: MDS/AML cell lines (THP1, HL60), 10 μM, 24 hrs
Protocol: as §2

MDS patient marrow cells [7] = assay: Colony formation in methylcellulose, primary MDS marrow cells; conditions: continuously treated or briefly exposed
Source text: We evaluated marrow cells from 7 MDS and 3 AML patient samples with various cytogenetic features to determine whether IRAK1 inhibition is also effective in primary patient cells (Table S1). […] Since MDS and AML stem/progenitor cells are clonal and the disease-propagating cells form colonies in methylcellulose, we also evaluated the effects of IRAK-Inh on colony formation.

O=C(Nc1nc2ccccc2n1CCN1CCOCC1)c1cccc([N+](=O)[O-])c1 [IRAK-Inh, N-(2-morpholinylethyl)-2-(3-nitrobenzoylamido)-benzimidazole]
HCT and Hb levels (MDSL cells [1]; 2.12 mg/kg i.p. 3×/week from day 6): maintained HCT and Hb levels
human graft in peripheral blood (hCD45) (MDSL cells [1]; within ~7 days of receiving 2.12 mg/kg i.p. 3×/week): reduced human graft in the peripheral blood
median survival (MDSL cells [2]; MDSL pre-treated 10 μM 24 hrs, 5×10^6 cells i.v., control 68 days): 80 days
human MDSL graft (MDSL cells [2]; peripheral blood, 28 days post-transplant, control 8%): 2%
proportion in G0/G1 (MDSL cells [3]): 62.7%±1.1
proportion of sub-G0 cells (MDSL cells [3]): 5.4%±0.3
viable cells in S phase (MDSL cells [3]): 4.3%±0.4
control CD34+ cell progenitor function (normal CD34+ cells): did not affect
colony formation, methylcellulose containing inhibitor (normal CD34+ cells; normal CD34+): equivalent number of colonies
viability of HL60 cells ([4]; HL60): only modestly reduced
sensitivity of HL60 cells ([4]; HL60, IRAK-Inh 10 μM, ABT-263 0.1 μM, alone or combined): refractory
MDS/AML cell line growth and survival ([4]; IRAK-Inh 10 μM, ABT-263 0.1 μM, alone or co-treatment): modest effects
cell proliferation ([4]; MDSL, TF1 and THP1, 0-10 μM, up to 6 days): dose-dependent impairment
proliferation of normal CD34+ cells [5]: not affected
apoptosis (MDS/AML cell lines): modest increase in apoptosis
expansion of MDS marrow cells (MDS patient marrow cells [6]): failed to expand
apoptotic cells in MDS marrow cells (MDS patient marrow cells [6]; except for MDS-07): increased levels of apoptotic cells
DNA bound and active RelA/p65 decreased by (NF-κB (RelA/p65)): ~50%
colony formation of MDS marrow cells (MDS patient marrow cells [7]): significantly fewer colonies
